Patent US20200016159A1, “N3-CYCLICALLY SUBSTITUTED THIENOURACILS AND USE THEREOF” (Bayer Aktiengesellschaft, priority 2016, published 2020)

molecular target: T1, human adenosine A2b receptor (Homo sapiens, UniProt P29275); test: Cellular in vitro reporter gene test for A2b receptor activity (antagonism of NECA); assay type: cell-based; parameters: expressed in transfected cells; host or cells: CHO-K1 (Chinese hamster ovary) with CRE-luciferase reporter; conditions: recombinant CHO-K1 cells, CRE-luciferase reporter, co-incubation with EC50 concentration of NECA, 3 hours
T1 sequence (P29275 1-332): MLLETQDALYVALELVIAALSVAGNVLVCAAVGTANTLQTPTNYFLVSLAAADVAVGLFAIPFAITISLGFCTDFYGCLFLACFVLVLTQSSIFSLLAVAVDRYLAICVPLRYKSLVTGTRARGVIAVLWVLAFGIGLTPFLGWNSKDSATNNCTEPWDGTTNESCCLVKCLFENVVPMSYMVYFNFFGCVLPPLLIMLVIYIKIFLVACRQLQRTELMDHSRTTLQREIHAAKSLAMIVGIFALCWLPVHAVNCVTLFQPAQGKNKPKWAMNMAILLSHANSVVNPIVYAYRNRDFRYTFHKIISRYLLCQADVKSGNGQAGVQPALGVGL
In short: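 CHO-K1 cells expressing recombinant human A2b receptor plus a CRE-driven firefly luciferase reporter. Compounds co-incubated with NECA at its same-day EC50 concentration; luminescence read 3 hours after NECA addition. IC50 values, sometimes means of several determinations rounded to two significant figures.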

Compound	IC50
COCCn1c(=O)n(C2(C(F)(F)F)CC2)c(=O)c2c(C)c(CN3CCNC(=O)C3=O)sc21 [Example 88, 6-[(2,3-Dioxopiperazin-1-yl)methyl]-1-(2-methoxyethyl)-5-methyl-3-[1-(trifluoromethyl)cyclopropyl]thieno[2,3-d]pyrimidine-2,4(1H,3H)-dione]	690 nM
COCCn1c(=O)n(C2CC(C)(C)C2)c(=O)c2c(C)c(CN3CCNC(=O)C3=O)sc21 [Example 172, 3-(3,3-Dimethylcyclobutyl)-6-[(2,3-dioxopiperazin-1-yl)methyl]-1-(2-methoxyethyl)-5-methylthieno[2,3-d]pyrimidine-2,4(1H,3H)-dione]	36 nM
COCCn1c(=O)n(C2(C(F)(F)F)CC2)c(=O)c2c(C)c(CN3CCNC3=NC#N)sc21 [Example 86, [1-({1-(2-Methoxy ethyl)-5-methyl-2,4-dioxo-3-[1-(trifluoromethyl)cyclopropyl]-1,2,3,4-tetrahydrothieno[2,3-d]pyrimidin-6-yl}methyl)imidazolidin-2-ylidene]cyanamide]	270 nM
CCCCn1c(=O)n([C@H]2C[C@@H]2C)c(=O)c2c(C)c(CN3CCNC3=O)sc21 [Example 230, 1-Butyl-5-methyl-3-[(1S,2S)-2-methylcyclopropyl]-6-[(2-oxoimidazolidin-1-yl)methyl]thieno[2,3-d]pyrimidine-2,4(1H,3H)-dione]	1.3 nM
COCCn1c(=O)n(C2CCCC2)c(=O)c2c(C)c(CN3CCNC3=NC#N)sc21 [Example 190, [1-{[3-Cyclopentyl-1-(2-methoxyethyl)-5-methyl-2,4-dioxo-1,2,3,4-tetrahydrothieno[2,3-d]pyrimidin-6-yl]methyl}imidazolidin-2-ylidene]cyanamide]	28 nM
Cc1c(CN2CCNC2=O)sc2c1c(=O)n(C1CC1)c(=O)n2CCC(F)(F)F [Example 9, 3-Cyclopropyl-5-methyl-6-[(2-oxoimidazolidin-1-yl)methyl]-1-(3,3,3-trifluoropropyl)thieno[2,3-d]pyrimidine-2,4(1H,3H)-dione]	1.5 nM
Cc1c(Cn2nc[nH]c2=O)sc2c1c(=O)n(C1CC1)c(=O)n2CC1CC1(F)F (racemic) [Example 20, 3-Cyclopropyl-1-[(2,2-difluorocyclopropyl)methyl]-5-methyl-6-[(5-oxo-4,5-dihydro-1H-1,2,4-triazol-1-yl)methyl]thieno[2,3-d]pyrimidine-2,4(1H,3H)-dione (racemate)]	130 nM
Cc1c(CN2CCNC2=O)sc2c1c(=O)n(C1CC1C)c(=O)n2CC(F)(F)F (racemic) [Example 237, 5-Methyl-3-(2-methylcyclopropyl)-6-[(2-oxoimidazolidin-1-yl)methyl]-1-(2,2,2-trifluoroethyl)thieno[2,3-d]pyrimidine-2,4(1H,3H)-dione]	4.4 nM
COCCn1c(=O)n(C2CC2OC)c(=O)c2c(C)c(CN3CCNC3=O)sc21 (single isomer, unassigned) [Example 307, 3-(2-Methoxycyclopropyl)-1-(2-methoxyethyl)-5-methyl-6-[(2-oxoimidazolidin-1-yl)methyl]thieno[2,3-d]pyrimidine-2,4(1H,3H)-dione]	8.1 nM
COCCn1c(=O)n(C2CC2(C)C)c(=O)c2c(C)c(CN3CCNC3=O)sc21 (racemic) [Example 103, 3-(2,2-Dimethylcyclopropyl)-1-(2-methoxyethyl)-5-methyl-6-[(2-oxoimidazolidin-1-yl)methyl]thieno[2,3-d]pyrimidine-2,4(1H,3H)-dione]	21 nM
Cc1c(Cn2[nH]ccc2=O)sc2c1c(=O)n(C1CC(F)(F)C1)c(=O)n2CCC(F)(F)F [Example 313, 3-(3,3-Difluorocyclobutyl)-5-methyl-6-[(5-oxo-2,5-dihydro-1H-pyrazol-1-yl)methyl]-1-(3,3,3-trifluoropropyl)thieno[2,3-d]pyrimidine-2,4(1H,3H)-dione]	93 nM
Cc1c(CN2CCNC2=O)sc2c1c(=O)n(C1(C)CC1)c(=O)n2C[C@H]1CCCO1 [Example 81, 5-Methyl-3-(1-methylcyclopropyl)-6-[(2-oxoimidazolidin-1-yl)methyl]-1-[(2R)-tetrahydrofuran-2-ylmethyl]thieno[2,3-d]pyrimidine-2,4(1H,3H)-dione]	39 nM
Cc1c(Cn2nc[nH]c2=O)sc2c1c(=O)n(C1CC3(CCC3)C1)c(=O)n2CCC(F)(F)F [Example 178, 5-Methyl-6-[(5-oxo-4,5-dihydro-1H-1,2,4-triazol-1-yl)methyl]-3-(spiro[3.3]hept-2-yl)-1-(3,3,3-trifluoropropyl)thieno[2,3-d]pyrimidine-2,4(1H,3H)-dione]	26 nM
COCCn1c(=O)n(C2CC2OC)c(=O)c2c(C)c(Cn3nc[nH]c3=O)sc21 (single isomer, unassigned) [Example 310, 3-(2-Methoxycyclopropyl)-1-(2-methoxyethyl)-5-methyl-6-[(5-oxo-4,5-dihydro-1H-1,2,4-triazol-1-yl)methyl]thieno[2,3-d]pyrimidine-2,4(1H,3H)-dione]	3900 nM
Cc1c(CN2CCNC2=O)sc2c1c(=O)n(C1CC1C)c(=O)n2C (single isomer, unassigned) [Example 222, 1,5-Dimethyl-3-(2-methylcyclopropyl)-6-[(2-oxoimidazolidin-1-yl)methyl]thieno[2,3-d]pyrimidine-2,4(1H,3H)-dione]	1.6 nM
Cc1c(Cn2nc[nH]c2=O)sc2c1c(=O)n([C@H]1C[C@@H]1C)c(=O)n2CCCC(F)(F)F [Example 324, 5-Methyl-3-[(1S,2S)-2-methylcyclopropyl]-6-[(5-oxo-4,5-dihydro-1H-1,2,4-triazol-1-yl)methyl]-1-(4,4,4-trifluorobutyl)thieno[2,3-d]pyrimidine-2,4(1H, 3H)-dione]	5.5 nM
CCC1CC1n1c(=O)c2c(C)c(Cn3nc[nH]c3=O)sc2n(CCOC)c1=O (racemic) [Example 303]	71 nM
COCCn1c(=O)n(C2CC2C(F)(F)F)c(=O)c2c(C)c(CN3CCNC3=O)sc21 (single isomer, unassigned) [Example 296, 1-(2-Methoxyethyl)-5-methyl-6-[(2-oxoimidazolidin-1-yl)methyl]-3-[2-(trifluoromethyl)cyclopropyl]thieno[2,3-d]pyrimidine-2,4(1H,3H)-dione]	16 nM
COCCn1c(=O)n(C2CC(F)(F)C2)c(=O)c2c(C)c(Cn3nc[nH]c3=O)sc21 [Example 129, 3-(3,3-Difluorocyclobutyl)-1-(2-methoxyethyl)-5-methyl-6-[(5-oxo-4,5-dihydro-H-1,2,4-triazol-1-yl)methyl]thieno[2,3-d]pyrimidine-2,4(1H,3H)-dione]	280 nM
Cc1c(CN2CCNC2=O)sc2c1c(=O)n(C1(C)CC1)c(=O)n2CCOC(C)C [Example 79, 1-(2-Isopropoxyethyl)-5-methyl-3-(1-methylcyclopropyl)-6-[(2-oxoimidazolidin-1-yl)methyl]thieno[2,3-d]pyrimidine-2,4(1H,3H)-dione]	110 nM
Cc1c(Cn2nc[nH]c2=O)sc2c1c(=O)n(C1CC(F)(F)C1)c(=O)n2CCC(F)(F)F [Example 124, 3-(3,3-Difluorocyclobutyl)-5-methyl-6-[(5-oxo-4,5-dihydro-H-1,2,4-triazol-1-yl)methyl]-1-(3,3,3-trifluoropropyl)thieno[2,3-d]pyrimidine-2,4(1H,3H)-dione]	26 nM
Cc1c(Cn2nc[nH]c2=O)sc2c1c(=O)n(C1CCC1)c(=O)n2CCC(F)(F)F [Example 114, 3-Cyclobutyl-5-methyl-6-[(5-oxo-4,5-dihydro-1H-1,2,4-triazol-1-yl)methyl]-1-(3,3,3-trifluoropropyl)thieno[2,3-d]pyrimidine-2,4(1H,3H)-dione]	1.9 nM
Cc1c(CN2CCNC2=O)sc2c1c(=O)n(C1CC1C)c(=O)n2CCC(F)(F)C(F)F (single isomer, unassigned) [Example 247, 5-Methyl-3-(2-methylcyclopropyl)-6-[(2-oxoimidazolidin-1-yl)methyl]-1-(3,3,4,4-tetrafluorobutyl)thieno[2,3-d]pyrimidine-2,4(1H,3H)-dione]	3.5 nM
COC(=O)N=C1NCCN1Cc1sc2c(c1C)c(=O)n(C1CC1)c(=O)n2CC1CCCO1 (single isomer, unassigned) [Example 43, Methyl [1-{[3-cyclopropyl-5-methyl-2,4-dioxo-1-(tetrahydrofuran-2-ylmethyl)-1,2,3,4-tetrahydrothieno[2,3-d]pyrimidin-6-yl]methyl}imidazolidin-2-ylidene]carbamate]	12 nM
Cc1c(CN2CCNC(=O)C2=O)sc2c1c(=O)n(C1CC(F)(F)C1)c(=O)n2CCC(F)(F)F [Example 123, 3-(3,3-Difluorocyclobutyl)-6-[(2,3-dioxopiperazin-1-yl)methyl]-5-methyl-1-(3,3,3-trifluoropropyl)thieno[2,3-d]pyrimidine-2,4(1H,3H)-dione]	10 nM
COCCn1c(=O)n(C2(C(F)(F)F)CC2)c(=O)c2c(C)c(CN3CCNC3=O)sc21 [Example 85, 1-(2-Methoxyethyl)-5-methyl-6-[(2-oxoimidazolidin-1-yl)methyl]-3-[1-(trifluoromethyl)cyclopropyl]thieno[2,3-d]pyrimidine-2,4(1H,3H)-dione]	310 nM
COCCn1c(=O)n(C2CCC2)c(=O)c2c(C)c(CN3CCNC3=NC#N)sc21 [Example 116, [1-{[3-Cyclobutyl-1-(2-methoxyethyl)-5-methyl-2,4-dioxo-1,2,3,4-tetrahydrothieno[2,3-d]pyrimidin-6-yl]methyl}imidazolidin-2-ylidene]cyanamide]	4 nM
